From patent US9447136B2, “Semisynthetic derivatives of Nystatin A1” (BLIRT S.A., priority 2012, dated 2016)
In brackets after ≈: the same amount, converted by molar mass. Read-outs that look alike come from different tables or passages of the source.

Tests used:
[1] = test system: Human erythrocytes; assay: Hemotoxicity (hemolytic activity); details: human erythrocytes
Method in brief: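 Human erythrocytes in saline (2×10^7/ml) were incubated with serially diluted compound at 37 °C for 30 min, then centrifuged. Released hemoglobin was read as A540 against 0.1% Triton X-100 as full hemolysis. EH50 is the interpolated concentration giving 50% of the control A540.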

[2] = test system: CCRF-CEM; assay: Cytotoxic activity against mammalian cells in tissue culture (MTT); assay type: cell-based, human
Method in brief: (§1)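 Cells at 1.2×10^4/well were exposed to serial 2× DMSO dilutions for 120 h at 37 °C: CCRF-CEM in RPMI 1640 + 10% FBS, HepG2 in MEM + 10% FBS, LLC-PK1 in Medium 199 + 3% FBS. MTT was added for 4 h and A540 read. IC50 is the concentration halving A540 versus DMSO control.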

[3] = test system: HepG2; assay: as above; assay type: cell-based, human
Method in brief: as §1

[4] = test system: LLC-PK1; assay: as above; assay type: cell-based, pig
Method in brief: as §1

[5] = test system: Saccharomyces cerevisiae ATCC 9763; assay: Antifungal activity in vitro, serial dilution in RPMI 1640; assay type: cell-based; details: for Antifungal activity Saccharomyces cerevisiae ATCC 9763 MIC: Table 2A, RPMI 1640, pH 7.0, A531 at most 20% of control; for MIC Saccharomyces cerevisiae ATCC 9763: Table 2B
Method in brief: (§2)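 Serial dilution, RPMI 1640 pH 7.0 (M27-A2 reference method); A531 read-out. IC50 = interpolated conc. at 50% of control A531; MIC = lowest conc. with A531 ≤20% of control.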

[6] = test system: Candida lusitaniae DSM 70102; assay: as above; assay type: cell-based; details: Table 2A; RPMI 1640, pH 7.0
Method in brief: as §2

[7] = test system: Candida krusei DSM 6128; assay: as above; assay type: cell-based; details: Table 2A; RPMI 1640, pH 7.0
Method in brief: as §2

[8] = test system: Candida quilliermondii DSM 11947; assay: as above; assay type: cell-based; details: Table 2B
Method in brief: as §2

[9] = test system: Candida glabrata DSM 11226; assay: as above; assay type: cell-based; details: Table 2A; RPMI 1640, pH 7.0
Method in brief: as §2

[10] = test system: Aspergillus niger LOCK E201; assay: as above; assay type: cell-based; details: Table 2B
Method in brief: as §2

[11] = test system: Trichoderma viride LOCK E159; assay: as above; assay type: cell-based; details: Table 2B
Method in brief: as §2

[12] = test system: Candida albicans ATCC 10231; assay: as above; assay type: cell-based; details: for Antifungal activity Candida albicans ATCC 10231 IC50 / Antifungal activity Candida albicans ATCC 10231 MIC: Table 2A, RPMI 1640, pH 7.0; for Antifungal activity Candida albicans ATCC 10231 IC50: A531 50% of control; for Antifungal activity Candida albicans ATCC 10231 MIC: A531 at most 20% of control; for MIC Candida albicans ATCC 10231: Table 2B
Method in brief: as §2

[13] = test system: Candida tropicalis KKP 334; assay: as above; assay type: cell-based; details: Table 2A; RPMI 1640, pH 7.0
Method in brief: as §2

[14] = test system: Candida arborea KKP 319; assay: as above; assay type: cell-based; details: Table 2B
Method in brief: as §2

[15] = test system: Candida dubliniensis CBS 7987; assay: as above; assay type: cell-based; details: Table 2B
Method in brief: as §2

[16] = test system: Candida pseudotropicalis KKP 324; assay: as above; assay type: cell-based; details: Table 2B
Method in brief: as §2

[17] = test system: Candida lipolytica KKP 322; assay: as above; assay type: cell-based; details: Table 2B
Method in brief: as §2

[18] = test system: Candida stellatoidea CBS 1905; assay: as above; assay type: cell-based; details: Table 2B
Method in brief: as §2

[19] = test system: Candida parapsilosis DSM 5784; assay: as above; assay type: cell-based; details: Table 2B
Method in brief: as §2

[20] = test system: Candida albicans STY31; assay: Antifungal activity towards resistant (MDR) strains; assay type: cell-based; details: 5674 mutant derivative, deletion of CDR1 and CDR2
Method in brief: (§3)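 Susceptibility testing used the M27-A2 reference broth dilution method with serial compound dilutions in buffered RPMI 1640. MIC defined at ≤20% of control A660.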

[21] = test system: Candida albicans STY19; assay: as above; assay type: cell-based; details: 5674 mutant derivative, deletion of CDR1
Method in brief: as §3

[22] = test system: Candida albicans STY7; assay: as above; assay type: cell-based; details: 5674 mutant derivative, deletion of CDR2
Method in brief: as §3

[23] = test system: Candida albicans Gu5; assay: as above; assay type: cell-based; details: fluconazole-resistant due to the overexpression of CDR1 and CDR2
Method in brief: (§4)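 Compounds are serially diluted in buffered RPMI 1640 per the M27-A2 broth dilution standard. Cell suspension density is measured at 660 nm. Plots of A660 against compound concentration give the MIC, defined as the concentration holding A660 to at most 20% of control.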

[24] = test system: Candida albicans B4; assay: as above; assay type: cell-based; details: fluconazole-resistant due to the overexpression of CaMDR1
Method in brief: as §3

[25] = test system: Candida albicans B3; assay: as above; assay type: cell-based; details: fluconazole sensitive, parent strain for B4
Method in brief: as §4

[26] = test system: Candida albicans F2; assay: as above; assay type: cell-based; details: fluconazole sensitive, parent strain for F5
Method in brief: as §4

[27] = test system: Candida albicans F5; assay: as above; assay type: cell-based; details: fluconazole-resistant due to the overexpression of CaMDR1 and ERG11
Method in brief: as §3

[28] = test system: Candida albicans 5674; assay: as above; assay type: cell-based; details: C. albicans 5674 overexpressing CDR1 and CDR2
Method in brief: as §3

[29] = test system: Candida albicans Gu4; assay: as above; assay type: cell-based; details: fluconazole sensitive, parent strain for Gu5
Method in brief: as §4

Row | Compound | % of hemolysis at the concentration 60 μg ml^−1 [1] | Antifungal activity Saccharomyces cerevisiae ATCC 9763 MIC [5] | MIC Saccharomyces cerevisiae ATCC 9763 [5] | Antifungal activity Candida krusei DSM 6128 MIC [7] | MIC Candida quilliermondii DSM 11947 [8] | Antifungal activity Candida glabrata DSM 11226 MIC [9] | MIC Aspergillus niger LOCK E201 [10] | MIC Trichoderma viride LOCK E159 [11] | Antifungal activity Candida albicans ATCC 10231 IC50 [12] | Antifungal activity Candida albicans ATCC 10231 MIC [12] | MIC Candida albicans ATCC 10231 [12] | Antifungal activity Candida tropicalis KKP 334 MIC [13] | MIC Candida arborea KKP 319 [14] | MIC Candida dubliniensis CBS 7987 [15] | MIC Candida pseudotropicalis KKP 324 [16] | MIC Candida lipolytica KKP 322 [17] | MIC Candida stellatoidea CBS 1905 [18] | MIC Candida parapsilosis DSM 5784 [19] | MIC Candida albicans STY31 [20] | MIC Candida albicans STY19 [21] | further results
1 | C[C@@H]1[C@H](O)[C@@H](C)/C=C/C=C/CC/C=C/C=C/C=C/C=C/C(O[C@H]2O[C@H](C)[C@@H](O)[C@H](N)[C@@H]2O)CC2O[C@](O)(CC(O)C(O)CCC(O)CC(O)CC(O)CC(=O)O[C@H]1C)CC(O)C2C(=O)O (stereo partly drawn) [Nystatin, Nystatin A1] | 100% | 0.5 mg/L | 0.5 mg/L (≈ 0.54 µM) | 1 mg/L | 0.5 mg/L (≈ 0.54 µM) | 1 mg/L | 1 mg/L (≈ 1.08 µM) | 1 mg/L (≈ 1.08 µM) | 0.23 mg/L | 0.5 mg/L | 0.5 mg/L (≈ 0.54 µM) | 0.5 mg/L | 1 mg/L (≈ 1.08 µM) | 1 mg/L (≈ 1.08 µM) | 1 mg/L (≈ 1.08 µM) | 0.5 mg/L (≈ 0.54 µM) | 1 mg/L (≈ 1.08 µM) | 1 mg/L (≈ 1.08 µM) | 1 mg/L (≈ 1.08 µM) | 1 mg/L (≈ 1.08 µM) | % of hemolysis at the concentration 300 μg ml^−1 ([1]; 300 μg ml^−1): 100%; EH10 ([1]; concentration causing 10% of hemolysis): 22.13 µg/mL; Cytotoxicity IC50 CCRF-CEM [2]: >100 mg/L; Cytotoxicity IC50 HepG2 [3]: 24.9 ± 2.332 mg/L; Cytotoxicity IC50 LLC-PK1 [4]: >100 mg/L; Antifungal activity Candida lusitaniae DSM 70102 MIC [6]: 0.25 mg/L; MIC Candida albicans STY7 [22]: 1 mg/L (≈ 1.08 µM); MIC Candida albicans Gu5 [23]: 1 mg/L (≈ 1.08 µM); MIC Candida albicans B4 [24]: 1 mg/L (≈ 1.08 µM); MIC Candida albicans B3 [25]: 0.5 mg/L (≈ 0.54 µM); MIC Candida albicans F2 [26]: 1 mg/L (≈ 1.08 µM); MIC Candida albicans F5 [27]: 1 mg/L (≈ 1.08 µM); MIC Candida albicans 5674 [28]: 1 mg/L (≈ 1.08 µM); MIC Candida albicans Gu4 [29]: 0.5 mg/L (≈ 0.54 µM)
2 | N-fructosyl-N-methylnystatin A1 [Compound N28] | 0.17% | 4 mg/L | 4 mg/L | 16 mg/L | 16 mg/L | 16 mg/L | 16 mg/L | 16 mg/L | 5.80 mg/L | 8 mg/L | 8 mg/L | 8 mg/L | 32 mg/L | 8 mg/L | 8 mg/L | 8 mg/L | 8 mg/L | 16 mg/L | 16 mg/L | 16 mg/L | Hemotoxicity BEH50 ([1]; 37° C., 30 minutes, concentration causing 50% hemolysis, maximum concentration 300 μg/ml): >250 µg/mL; Cytotoxicity IC50 CCRF-CEM ([2]; CCRF-CEM, 120 h, MTT): >100 mg/L; Cytotoxicity IC50 HepG2 ([3]; HepG2, 120 h, MTT): >100 mg/L; Cytotoxicity IC50 LLC-PK1 ([4]; LLC-PK1, 120 h, MTT): >100 mg/L; MIC Candida albicans STY7 [22]: 16 mg/L; MIC Candida albicans Gu5 [23]: 16 mg/L; MIC Candida albicans B4 [24]: 8 mg/L; MIC Candida albicans B3 [25]: 8 mg/L; MIC Candida albicans F2 [26]: 8 mg/L; MIC Candida albicans F5 [27]: 16 mg/L; MIC Candida albicans 5674 [28]: 16 mg/L; MIC Candida albicans Gu4 [29]: 8 mg/L
